Measured values taken from ChEMBL document CHEMBL1782011, “Facile synthesis, vasorelaxant properties and molecular modeling studies of 2-amino-8a-methoxy-4H-pyrano[3,2-c]pyridine-3-carbonitriles” (Eur J Med Chem, 2011).
Where a name gives a salt, the structure may show the parent alone.

Species: Rattus norvegicus
Test: Vasodilatory activity in Wistar rat thoracic aorta rings assessed as inhibition of norepinephrine hydrochloride-induced contraction
Format: functional

Row | Structure (SMILES) | IC50 [µM]
1 | CCN1CC[C@@]2(OC)OC(N)=C(C#N)[C@@H](c3ccccc3)[C@@H]2C1 | 680
2 | CO[C@@]12CCN(C)C[C@H]1[C@H](c1ccc(Cl)cc1)C(C#N)=C(N)O2 | 370
3 | CO[C@@]12CCN(C)C[C@H]1[C@H](c1ccc(F)cc1)C(C#N)=C(N)O2 | 520
4 | CO[C@@]12CCN(C)C[C@H]1[C@H](c1ccc(C)cc1)C(C#N)=C(N)O2 | 600
5 | COc1ccc([C@@H]2C(C#N)=C(N)O[C@]3(OC)CCN(C)C[C@@H]23)cc1 | 300
6 | CO[C@@]12CCN(C)C[C@H]1[C@H](c1cccs1)C(C#N)=C(N)O2 | 680
7 | CCN1CC[C@@]2(OC)OC(N)=C(C#N)[C@@H](c3cccs3)[C@@H]2C1 | 490
8 | CO[C@@]12CCN(C)C[C@H]1[C@H](c1ccccc1)C(C#N)=C(N)O2 | 720
9 | COc1cc2nc(N3CCN(C(=O)c4ccco4)CC3)nc(N)c2cc1OC [PRAZOSIN HYDROCHLORIDE] | 490

The remaining lines, values ahead:

Row | IC50 [µM] | Structure (SMILES)
10 | 400 | CCN1CC[C@@]2(OC)OC(N)=C(C#N)[C@@H](c3ccc(Cl)cc3)[C@@H]2C1
11 | 680 | CCN1CC[C@@]2(OC)OC(N)=C(C#N)[C@@H](c3ccc(OC)cc3)[C@@H]2C1
12 | 450 | CO[C@@]12CCN(C)C[C@H]1[C@H](c1ccc(N3CCCCC3)cc1)C(C#N)=C(N)O2
13 | 480 | CCN1CC[C@@]2(OC)OC(N)=C(C#N)[C@@H](c3ccc(N4CCCCC4)cc3)[C@@H]2C1
14 | 740 | CO[C@@]12CCN(C)C[C@H]1[C@H](c1ccc(N3CCOCC3)cc1)C(C#N)=C(N)O2
15 | 640 | CCN1CC[C@@]2(OC)OC(N)=C(C#N)[C@@H](c3ccc(N4CCOCC4)cc3)[C@@H]2C1
